Measured values from the supplement of paper PMC10307832.

What was measured:
Test in all cases: relative viability (nuclei count vs DMSO), 5 days (fraction); higher = more cells survive
Crenolanib + OSI-027 = compound: CC1(COc2ccc3c(c2)ncn3-c2ccc3cccc(N4CCC(N)CC4)c3n2)COC1 [Crenolanib] + COc1cccc2cc(-c3nc([C@H]4CC[C@H](C(=O)O)CC4)n4ncnc(N)c34)[nH]c12 [OSI-027] (partner 0.5 µM)
Summary of the method: (§1)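 Relative viability was taken as the ratio of nuclei in treated wells to nuclei in vehicle wells. Lung cancer cell lines in 1536-well plates received compounds by pin tool one day after seeding, either one drug alone or a fixed anchor-drug dose plus five library-drug doses (not always all listed) in √10 steps. Nuclei were counted on 4× images after 5 days of treatment, and values are medians of duplicate plates.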

Crenolanib + Crizotinib = compound: CC1(COc2ccc3c(c2)ncn3-c2ccc3cccc(N4CCC(N)CC4)c3n2)COC1 [Crenolanib] + C[C@@H](Oc1cc(-c2cnn(C3CCNCC3)c2)cnc1N)c1c(Cl)ccc(F)c1Cl [Crizotinib] (partner 1 µM)
Summary of the method: as §1

Crenolanib + Decitabine = compound: CC1(COc2ccc3c(c2)ncn3-c2ccc3cccc(N4CCC(N)CC4)c3n2)COC1 [Crenolanib] + Nc1ncn([C@H]2C[C@H](O)[C@@H](CO)O2)c(=O)n1 [Decitabine] (partner 2 µM)
Summary of the method: as §1

Tivantinib + OSI-027 = compound: O=C1NC(=O)[C@@H](c2cn3c4c(cccc24)CCC3)[C@@H]1c1c[nH]c2ccccc12 [Tivantinib] + COc1cccc2cc(-c3nc([C@H]4CC[C@H](C(=O)O)CC4)n4ncnc(N)c34)[nH]c12 [OSI-027] (partner 0.5 µM)
Summary of the method: as §1

Cell Line	relative viability (Crenolanib + OSI-027; first compound 0.01 µM)	relative viability (Crenolanib + OSI-027; first compound 0.03162 µM)	relative viability (Crenolanib + OSI-027; first compound 0.1 µM)	relative viability (Crenolanib + OSI-027; first compound 0.3162 µM)	relative viability (Crenolanib + OSI-027; first compound 1 µM)	relative viability (Crenolanib + Crizotinib; first compound 0.01 µM)	relative viability (Crenolanib + Crizotinib; first compound 0.03162 µM)	relative viability (Crenolanib + Crizotinib; first compound 0.1 µM)	relative viability (Crenolanib + Crizotinib; first compound 0.3162 µM)	relative viability (Crenolanib + Crizotinib; first compound 1 µM)	relative viability (Crenolanib + Decitabine; first compound 0.01 µM)	relative viability (Crenolanib + Decitabine; first compound 0.03162 µM)	relative viability (Crenolanib + Decitabine; first compound 0.1 µM)	relative viability (Crenolanib + Decitabine; first compound 0.3162 µM)	relative viability (Crenolanib + Decitabine; first compound 1 µM)	relative viability (Tivantinib + OSI-027; first compound 0.01 µM)	relative viability (Tivantinib + OSI-027; first compound 0.03162 µM)	relative viability (Tivantinib + OSI-027; first compound 0.1 µM)	relative viability (Tivantinib + OSI-027; first compound 0.3162 µM)
NCI-H3122	1.01	0.974	0.962	1.17	1.06	0.27	0.288	0.298	0.267	0.321	0.433	0.424	0.468	0.546	0.478	0.985	0.914	0.93	0.207
LOU-NH91	0.765	0.729	0.642	0.717	0.624	0.765	0.753	0.688	0.722	0.729	0.863	0.792	0.822	0.856	0.853	0.657	0.709	0.729	0.465
NCI-H647	0.588	0.623	0.79	0.709	0.705	1.07	1.03	1.03	1.01	1.03	0.376	0.401	0.362	0.502	0.346	0.792	0.618	0.574	0.83
NCI-H838	0.378	0.358	0.418	0.366	0.283	0.883	0.855	0.821	0.872	0.772	0.482	0.463	0.45	0.466	0.418	0.394	0.377	0.345	0.363
HARA	0.639	0.501	0.319	0.591	0.396	1.24	1	0.938	0.924	1	0.67	0.543	0.447	0.586	0.569	0.583	0.359	0.509	0.26
SK-MES-1	0.598	0.657	0.508	0.581	0.599	1	1	0.857	1.02	0.973	0.315	0.451	0.42	0.385	0.359	0.668	0.435	0.554	0.482
LXF-289	0.844	0.764	0.752	0.786	0.706	0.81	0.745	0.777	0.753	0.81	0.402	0.349	0.408	0.388	0.413	0.77	0.724	0.761	0.858
HOP-62	0.868	0.833	0.872	1.03	0.722	0.87	1.03	0.984	0.821	1.02	0.222	0.19	0.29	0.205	0.234	0.831	0.566	0.876	0.887
LK-2	0.208	0.195	0.233	0.17	0.183	0.238	0.24	0.219	0.227	0.213	0.304	0.203	0.285	0.337	0.309	0.225	–	0.219	0.243
HCC-44	0.498	0.496	0.611	0.519	0.434	0.823	0.84	0.739	0.881	0.848	0.933	0.925	0.944	0.972	0.845	0.488	0.534	0.441	0.669
BEN	0.302	0.339	0.305	0.321	0.314	0.89	0.839	0.863	0.763	0.847	0.768	0.72	0.76	0.612	0.749	0.323	0.269	0.278	0.339
NCI-H2347	0.326	–	–	0.482	0.427	0.934	0.624	0.506	0.59	0.72	0.657	0.611	0.605	0.674	0.6	0.48	0.386	0.418	0.475
201T	0.505	0.605	0.695	0.763	0.692	1.04	1.02	1.01	1.04	0.976	0.863	0.839	0.822	0.884	0.843	0.962	0.718	0.665	0.74
NCI-H2170	0.82	0.744	0.706	0.828	0.669	1.21	1.18	1.19	1.18	1.17	0.474	0.504	0.452	0.506	0.454	0.645	0.718	0.652	–
NCI-H520	0.245	0.284	0.311	0.306	0.318	0.743	0.915	0.802	0.933	0.983	0.54	0.492	0.451	0.575	0.481	0.318	0.221	0.261	0.261
NCI-H727	0.782	0.649	0.731	0.614	0.431	0.858	0.956	0.806	0.973	0.824	0.872	0.851	0.877	0.997	0.904	0.781	0.484	0.515	0.468
HCC-366	0.978	0.861	0.837	0.893	0.75	0.487	0.466	0.481	1.04	0.462	0.33	0.325	0.329	0.374	0.334	0.941	0.807	0.848	0.934
